In patent US20190100549A1, “FLAVONOIDE-TYPE COMPOUNDS BEARING AN O-RHAMNOSYL RESIDUE” (Universitaet Hamburg, priority 2016, published 2019):
Where “and” joins values, the source holds several entries; their conditions need not be identical. Equal entries are not always repeated.

What was measured:
[1] = test system: normal human epidermal keratinocytes (NHEK); experiment: Cytotoxicity on NHEK monolayer cultures (MTT reduction assay and morphological observation); type: cell-based; settings: for Viability (%): single values, listed as Hes-5-Rha
Procedure: To determine the cytotoxicity of flavonoid-5-O-α-L-rhamnosides tests were performed versus their aglycon derivatives in cell monolayer cultures. For this purpose concentrations ranging from 1 μM to 250 μM were chosen. The viability of normal human epidermal keratinocytes (NHEK) was twice evaluated by a MTT reduction assay and morphological observation with a microscope. NHEK were grown at 37° C. and 5% CO2 aeration in Keratinocyte-SFM medium supplemented with epidermal growth factor (EGF) at 0.25 ng/mL, pituitary extract (PE) at 25 μg/mL and gentamycin (25 μg/mL) for 24 h and were used at the 3rd passage. For cytotoxicity testing, pre-incubated NHEK were given fresh culture medium containing a specific concentration of test compound and incubated for 24 h. After a medium change at same test concentration cells were incubated a further 24 h until viability was determined. Test results are given in Table B2 and illustrated in FIG. 10.

[2] = test system: NF-κB; experiment: NF-κB activity in NIH3T3-KBF-Luc cells stimulated with TNFα (luciferase); type: cell-based; settings: for % Activation: TNFα alone = 100
Procedure: NIH3T3-KBF-Luc cells were stably transfected with the KBF-Luc plasmid (Sancho (2003) Mol Pharmacol 63:429-438), which contains three copies of NF-κB binding site (from major histocompatibility complex promoter), fused to a minimal simian virus 40 promoter driving the luciferase gene. Cells (1×10^4 for NIH3T3-KBF-Luc) were seeded the day before the assay on 96-well plate. Then the cells were treated with the test substances for 15 min and then stimulated with 30 ng/ml of TNFα. After 6 h, the cells were washed twice with PBS and lysed in 50 μl lysis buffer containing 25 mM Tris-phosphate (pH 7.8), 8 mM MgCl2, 1 mM DTT, 1% Triton X-100, and 7% glycerol during 15 min at RT in a horizontal shaker. Luciferase activity was measured using a GloMax 96 microplate luminometer (Promega) following the instructions of the luciferase assay kit (Promega, Madison, Wis., USA). […] The experiments for each concentration of the test items were done in triplicate wells.

[3] = test system: TNF-α; experiment: TNF-α release in stimulated NHEK (ELISA); type: cell-based, human; settings: poly(I:C)
Procedure: (§1) NHEK were pre-incubated for 24 h with the test compounds. The medium was replaced with the NHEK culture medium containing the inflammatory inducers (PMA or Poly I:C) and incubated for another 24 hours. Positive and negative controls ran in parallel. At the endpoint the culture supernatants were quantified of secreted IL-8, PGE2 and TNF-α by means of ELISA.

[4] = test system: PGE2; experiment: PGE2 release in stimulated NHEK (ELISA); type: cell-based, human; settings: PMA 1 μg/ml, 100 μM
Procedure: as §1

Structure (SMILES): COc1ccc(C2CC(=O)c3c(cc(O)cc3O[C@@H]3O[C@@H](C)[C@H](O)[C@@H](O)[C@H]3O)O2)cc1O (stereo partly drawn) [HESR1, Hesperetin-5-O-α-L-rhamnoside]
- Viability (%) Mean ([1]; 1 μM): 97%
- Viability (%) ([1]; 1 μM): 86% and 108%
- Viability (%) Mean ([1]; 2.5 μM): 100%
- Viability (%) ([1]; 2.5 μM): 87% and 113%
- Viability (%) Mean ([1]; 5 μM): 88%
- Viability (%) ([1]; 5 μM): 81% and 95%
- Viability (%) Mean ([1]; 10 μM): 95%
- Viability (%) ([1]; 10 μM): 86% and 103%
- Viability (%) Mean ([1]; 25 μM): 101%
- Viability (%) ([1]; 25 μM): 89% and 112%
- Viability (%) Mean ([1]; 50 μM): 87%
- Viability (%) ([1]; 50 μM): 81% and 93%
- Viability (%) Mean ([1]; 100 μM): 97%
- Viability (%) ([1]; 100 μM): 86% and 108%
- Viability (%) Mean ([1]; 250 μM): 96%
- Viability (%) ([1]; 250 μM): 91% and 102%
- RLU 1 ([2]; 10 μM + 30 ng/ml TNFα): 186120 RLU
- RLU 2 ([2]; 10 μM + 30 ng/ml TNFα): 181040 RLU
- RLU 3 ([2]; 10 μM + 30 ng/ml TNFα): 182280 RLU
- RLU MEAN ([2]; 10 μM + 30 ng/ml TNFα): 183147 RLU
- RLU specific ([2]; 10 μM + 30 ng/ml TNFα): 145883 RLU
- % Activation ([2]; 10 μM + 30 ng/ml TNFα): 178.4%
- RLU 1 ([2]; 25 μM + 30 ng/ml TNFα): 218940 RLU
- RLU 2 ([2]; 25 μM + 30 ng/ml TNFα): 216580 RLU
- RLU 3 ([2]; 25 μM + 30 ng/ml TNFα): 213320 RLU
- RLU MEAN ([2]; 25 μM + 30 ng/ml TNFα): 216280 RLU
- RLU specific ([2]; 25 μM + 30 ng/ml TNFα): 179017 RLU
- % Activation ([2]; 25 μM + 30 ng/ml TNFα): 218.9%
- inhibition at 100 µM ([3]; Homo sapiens, NHEK, read-out: TNFα Inhibition %): 26%
- Cytokine [pg/mL] TNFα Mean ([3]; 100 μM): 423 pg/mL
- TNFα % stim. control ([3]; 100 μM): 75%
- Cytokine [pg/mL] TNFα ([3]; 100 μM, single values): 416 pg/mL and 429 pg/mL
- inhibition at 100 µM ([4]; Homo sapiens, NHEK): 74%
- Cytokine [pg/mL] PGE2 Mean [4]: 507 pg/mL
- PGE2 % stim. control [4]: 32%
- Cytokine [pg/mL] PGE2 ([4]; single values): 582 pg/mL and 431 pg/mL
